The IC50 is the concentration needed to halve the response being measured.

13 compounds from patent publication US20260077071A1, “Targeted Delivery of Theranostic Agents” (Peter MacCallum Cancer Institute, priority 2022, published 2026) can be followed below.

The target of the test is T1, human full-length CCK-2 receptor (Homo sapiens, UniProt P32239).
T1 construct: stably transfected to over-express the human full-length CCK-2 receptor (A431-CCK-2R); expressed in transfected cells
T1 sequence (P32239 1-447): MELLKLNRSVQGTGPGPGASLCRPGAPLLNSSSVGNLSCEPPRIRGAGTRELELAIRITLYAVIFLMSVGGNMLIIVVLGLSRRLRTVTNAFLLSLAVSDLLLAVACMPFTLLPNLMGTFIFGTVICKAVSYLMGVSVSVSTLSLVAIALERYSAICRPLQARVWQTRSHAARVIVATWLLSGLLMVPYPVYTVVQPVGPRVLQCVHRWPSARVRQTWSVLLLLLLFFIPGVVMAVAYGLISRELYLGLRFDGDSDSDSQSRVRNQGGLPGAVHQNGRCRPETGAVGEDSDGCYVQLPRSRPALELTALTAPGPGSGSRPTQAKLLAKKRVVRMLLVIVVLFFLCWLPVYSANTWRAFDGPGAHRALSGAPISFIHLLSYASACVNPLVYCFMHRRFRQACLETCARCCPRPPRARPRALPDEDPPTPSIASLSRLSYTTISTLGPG
Briefly: Competitive ligand binding against [^177Lu]Lu-DOTA-CP04 in A431-CCK-2R cells. As to conditions: for loss of binding affinity / activity: D-Ala analogue versus baseline comparative example-1; for IC50: read-out: IC50; for decrease in affinity for the CCK-2 receptor: free peptide versus its linker/metal-complex (DOTA) form. As to the method: CCK-2 receptor binding experiments were conducted using A431 (human epidermoid carcinoma) cells stably transfected to over-express the human full-length CCK-2 receptor (A431-CCK-2R). As a negative control, A431 cells stably transfected with an empty vector were analysed simultaneously (A431-EV). A431 cells were maintained in DMEM (Gibco, Australia) media supplemented with 10% foetal calf serum and 250 μg/mL G418 as described previously (Aloj L, et al., J Nucl Med., 2004, Mar; 45(3), 485-94). The affinity of peptides for the CCK-2R was evaluated using competitive binding assays against [^177Lu]Lu-DOTA-CP04 in A431-CCK-2R cells. Briefly, 48 h before the experiment cells were plated at a density of 650,000 cells per well in 6 well plates. On the day of the experiment the peptides were diluted in DMEM supplemented with 1% foetal calf serum to at least 7 different concentrations (0-400 nM) and approximately 50,000 cpm of [^177Lu]Lu-DOTA-CP04 was added to each dilution. Cells were washed twice in ice-cold binding buffer (DMEM supplemented with 1% foetal calf serum) and resuspended in 1.5 mL of the pre-prepared compound mix before being incubated at 37° C. for 1 h. Post-incubation the media was removed and kept for analysis (unbound fraction) and the cells were washed twice in ice-cold binding buffer, which was pooled with the unbound fraction. Finally, 1 M NaOH was added to the cells and allowed to incubate for 5 min before lysates were collected (bound fraction). A small volume of lysate was kept aside to determine protein concentration using the Pierce® BCA protein assay kit (Thermo Fisher, Australia). All samples were analysed using the Perkin Elmer 2480 Wizard2™ gamma counter (PerkinElmer, Massachusetts, USA) and were normalised according to protein concentration. Half-maximal inhibitory concentrations (IC50) were determined using nonlinear regression calculated using GraphPad Prism Software (GraphPad Software, California, USA).
The compounds were evaluated for their ability to disrupt the binding between CCK-2 receptor (CCK-2R) and [^177Lu]Lu-DOTA-CP04 using the methodology described above and compared to comparative example-2 (FIG. 2; Table 5).

The mark [1] stands for this setting: D-Ala substituted peptides (Table 2), against [^177Lu]Lu-DOTA-CP04 in A431-CCK-2R cells.
[2] abbreviates: substituted-phenylalanine peptides based on Cmp ex-1 (Table 3).

Molecules are shown by their SMILES. Where two headings read alike, the source gives them in different places. Square brackets hold non-standard residues; d marks the D form. Peptide text beside a SMILES is read from it. Phe(3,4,5-F3) = N[C@@H](Cc1cc(F)c(F)c(F)c1)C(=O)O; Phe(F5) = N[C@@H](Cc1c(F)c(F)c(F)c(F)c1F)C(=O)O; Phe(3,4-F2) = N[C@@H](Cc1ccc(F)c(F)c1)C(=O)O; Phe(4-NH2) = Nc1ccc(C[C@H](N)C(=O)O)cc1; Phe(4-F) = N[C@@H](Cc1ccc(F)cc1)C(=O)O; 1Nal = N[C@@H](Cc1cccc2ccccc12)C(=O)O; 2Nal = N[C@@H](Cc1ccc2ccccc2c1)C(=O)O; NMeNle = CCCC[C@H](NC)C(=O)O; Sar = CNCC(=O)O

For the compound `CCCC[C@@H](C(=O)N[C@@H](CC(=O)O)C(=O)N[C@@H](Cc1cccc2ccccc12)C(N)=O)N(C)C(=O)[C@H](Cc1c[nH]c2ccccc12)NC(=O)CN(C)C(=O)[C@H](Cc1ccc(O)cc1)NC(=O)[C@H](C)NC(=O)[C@@H](CCC(=O)O)NC(=O)[C@@H](CCC(=O)O)NC(=O)[C@@H](CCC(=O)O)NC(=O)[C@@H](CCC(=O)O)NC(=O)[C@@H](C)NC(=O)[C@H](N)CCC(=O)O` [B] (H-[dE][dA][dE][dE][dE][dE]AY[Sar]W[NMeNle]D[1Nal]-NH2), the “loss of binding affinity / activity” value is listed as “approx. 5 fold”. In addition, the half-maximal inhibitory concentration (IC50) under setting [1] was determined as 1230 pM.

For `CSCC[C@H](NC(=O)[C@H](Cc1c[nH]c2ccccc12)NC(=O)CNC(=O)[C@H](Cc1ccc(O)cc1)NC(=O)[C@H](C)NC(=O)[C@@H](CCC(=O)O)NC(=O)[C@@H](CCC(=O)O)NC(=O)[C@@H](CCC(=O)O)NC(=O)[C@@H](CCC(=O)O)NC(=O)[C@@H](CCC(=O)O)NC(=O)[C@@H](CCC(=O)O)NC(=O)CN1CCN(CC(=O)O)CCN(CC(=O)O)CCN(CC(=O)O)CC1)C(=O)N[C@@H](CC(=O)O)C(=O)N[C@@H](Cc1ccccc1)C(N)=O` [CP04, reference compound], the “decrease in affinity for the CCK-2 receptor” value is “greater than 3 fold”.

As to `CCCC[C@@H](C(=O)N[C@@H](CC(=O)O)C(=O)N[C@@H](Cc1cccc2ccccc12)C(N)=O)N(C)C(=O)[C@H](Cc1c[nH]c2ccccc12)NC(=O)CN(C)C(=O)[C@H](Cc1ccc(O)cc1)NC(=O)[C@H](C)NC(=O)[C@@H](CCC(=O)O)NC(=O)[C@@H](CCC(=O)O)NC(=O)[C@@H](CCC(=O)O)NC(=O)[C@@H](CCC(=O)O)NC(=O)[C@@H](CCC(=O)O)NC(=O)[C@H](N)CCC(=O)O` [Cmp ex-1, reference compound] (H-[dE][dE][dE][dE][dE][dE]AY[Sar]W[NMeNle]D[1Nal]-NH2; N-terminus assumed), the “decrease in affinity for the CCK-2 receptor” value came to 5 fold. Besides, under setting [1], the IC50 was determined as 319 pM.

Regarding `CCCC[C@@H](C(=O)N[C@@H](CC(=O)O)C(=O)N[C@@H](Cc1cccc2ccccc12)C(N)=O)N(C)C(=O)[C@H](Cc1c[nH]c2ccccc12)NC(=O)CN(C)C(=O)[C@H](Cc1ccc(O)cc1)NC(=O)[C@H](C)NC(=O)[C@@H](CCC(=O)O)NC(=O)[C@@H](CCC(=O)O)NC(=O)[C@@H](C)NC(=O)[C@@H](CCC(=O)O)NC(=O)[C@@H](CCC(=O)O)NC(=O)[C@H](N)CCC(=O)O` [D] (H-[dE][dE][dE][dA][dE][dE]AY[Sar]W[NMeNle]D[1Nal]-NH2), the “loss of binding affinity / activity” value was “approx. 5 fold”. For the same compound, under setting [1], the IC50 is 1620 pM.

As to `CCCC[C@@H](C(=O)N[C@@H](CC(=O)O)C(=O)N[C@@H](Cc1cccc2ccccc12)C(N)=O)N(C)C(=O)[C@H](Cc1c[nH]c2ccccc12)NC(=O)CN(C)C(=O)[C@H](Cc1ccc(O)cc1)NC(=O)[C@H](C)NC(=O)[C@@H](CCC(=O)O)NC(=O)[C@@H](C)NC(=O)[C@@H](CCC(=O)O)NC(=O)[C@@H](CCC(=O)O)NC(=O)[C@@H](CCC(=O)O)NC(=O)[C@H](N)CCC(=O)O` [E] (H-[dE][dE][dE][dE][dA][dE]AY[Sar]W[NMeNle]D[1Nal]-NH2), the “loss of binding affinity / activity” value was “equivalent loss of activity”.

Regarding `CCCC[C@@H](C(=O)N[C@@H](CC(=O)O)C(=O)N[C@@H](Cc1cccc2ccccc12)C(N)=O)N(C)C(=O)[C@H](Cc1c[nH]c2ccccc12)NC(=O)CN(C)C(=O)[C@H](Cc1ccc(O)cc1)NC(=O)[C@H](C)NC(=O)[C@@H](C)NC(=O)[C@@H](CCC(=O)O)NC(=O)[C@@H](CCC(=O)O)NC(=O)[C@@H](CCC(=O)O)NC(=O)[C@@H](CCC(=O)O)NC(=O)[C@H](N)CCC(=O)O` [F] (H-[dE][dE][dE][dE][dE][dA]AY[Sar]W[NMeNle]D[1Nal]-NH2), the “loss of binding affinity / activity” value is recorded as “approx. 5 fold”. For the same compound, under setting [1], the half-maximal inhibitory concentration (IC50) stood at 1620 pM.

As for `CCCC[C@@H](C(=O)N[C@@H](CC(=O)O)C(=O)N[C@@H](Cc1ccc(F)cc1)C(N)=O)N(C)C(=O)[C@H](Cc1c[nH]c2ccccc12)NC(=O)CN(C)C(=O)[C@H](Cc1ccc(O)cc1)NC(=O)[C@H](C)NC(=O)[C@@H](CCC(=O)O)NC(=O)[C@@H](CCC(=O)O)NC(=O)[C@@H](CCC(=O)O)NC(=O)[C@@H](CCC(=O)O)NC(=O)[C@@H](CCC(=O)O)NC(=O)[C@H](N)CCC(=O)O` [G] (H-[dE][dE][dE][dE][dE][dE]AY[Sar]W[NMeNle]D[Phe(4-F)]-NH2), the IC50 under setting [2] was 920 pM.

`CCCC[C@@H](C(=O)N[C@@H](CC(=O)O)C(=O)N[C@@H](Cc1ccc(F)c(F)c1)C(N)=O)N(C)C(=O)[C@H](Cc1c[nH]c2ccccc12)NC(=O)CN(C)C(=O)[C@H](Cc1ccc(O)cc1)NC(=O)[C@H](C)NC(=O)[C@@H](CCC(=O)O)NC(=O)[C@@H](CCC(=O)O)NC(=O)[C@@H](CCC(=O)O)NC(=O)[C@@H](CCC(=O)O)NC(=O)[C@@H](CCC(=O)O)NC(=O)[C@H](N)CCC(=O)O` [H] (H-[dE][dE][dE][dE][dE][dE]AY[Sar]W[NMeNle]D[Phe(3,4-F2)]-NH2): the half-maximal inhibitory concentration (IC50) under setting [2] turned out to be 640 pM.

On to `CCCC[C@@H](C(=O)N[C@@H](CC(=O)O)C(=O)N[C@@H](Cc1cc(F)c(F)c(F)c1)C(N)=O)N(C)C(=O)[C@H](Cc1c[nH]c2ccccc12)NC(=O)CN(C)C(=O)[C@H](Cc1ccc(O)cc1)NC(=O)[C@H](C)NC(=O)[C@@H](CCC(=O)O)NC(=O)[C@@H](CCC(=O)O)NC(=O)[C@@H](CCC(=O)O)NC(=O)[C@@H](CCC(=O)O)NC(=O)[C@@H](CCC(=O)O)NC(=O)[C@H](N)CCC(=O)O` [I] (H-[dE][dE][dE][dE][dE][dE]AY[Sar]W[NMeNle]D[Phe(3,4,5-F3)]-NH2), for which, under setting [2], the IC50 was 260 pM.

Consider `CCCC[C@@H](C(=O)N[C@@H](CC(=O)O)C(=O)N[C@@H](Cc1c(F)c(F)c(F)c(F)c1F)C(N)=O)N(C)C(=O)[C@H](Cc1c[nH]c2ccccc12)NC(=O)CN(C)C(=O)[C@H](Cc1ccc(O)cc1)NC(=O)[C@H](C)NC(=O)[C@@H](CCC(=O)O)NC(=O)[C@@H](CCC(=O)O)NC(=O)[C@@H](CCC(=O)O)NC(=O)[C@@H](CCC(=O)O)NC(=O)[C@@H](CCC(=O)O)NC(=O)[C@H](N)CCC(=O)O` [J] (H-[dE][dE][dE][dE][dE][dE]AY[Sar]W[NMeNle]D[Phe(F5)]-NH2; N-terminus assumed), for which the IC50 under setting [2] was found to be 1920 pM.

In the case of `CCCC[C@@H](C(=O)N[C@@H](CC(=O)O)C(=O)N[C@@H](Cc1ccc(N)cc1)C(N)=O)N(C)C(=O)[C@H](Cc1c[nH]c2ccccc12)NC(=O)CN(C)C(=O)[C@H](Cc1ccc(O)cc1)NC(=O)[C@H](C)NC(=O)[C@@H](CCC(=O)O)NC(=O)[C@@H](CCC(=O)O)NC(=O)[C@@H](CCC(=O)O)NC(=O)[C@@H](CCC(=O)O)NC(=O)[C@@H](CCC(=O)O)NC(=O)[C@H](N)CCC(=O)O` [K] (H-[dE][dE][dE][dE][dE][dE]AY[Sar]W[NMeNle]D[Phe(4-NH2)]-NH2; N-terminus assumed), under setting [2], the half-maximal inhibitory concentration (IC50) is 520 pM.

Consider `CCCC[C@@H](C(=O)N[C@@H](CC(=O)O)C(=O)N[C@@H](Cc1ccc2ccccc2c1)C(N)=O)N(C)C(=O)[C@H](Cc1c[nH]c2ccccc12)NC(=O)CN(C)C(=O)[C@H](Cc1ccc(O)cc1)NC(=O)[C@H](C)NC(=O)[C@@H](CCC(=O)O)NC(=O)[C@@H](CCC(=O)O)NC(=O)[C@@H](CCC(=O)O)NC(=O)[C@@H](CCC(=O)O)NC(=O)[C@@H](CCC(=O)O)NC(=O)[C@H](N)CCC(=O)O` [L] (H-[dE][dE][dE][dE][dE][dE]AY[Sar]W[NMeNle]D[2Nal]-NH2; N-terminus assumed), for which the IC50 under setting [2] is 600 pM.

Regarding `CCCC[C@@H](C(=O)N[C@@H](CC(=O)O)C(=O)N[C@@H](Cc1ccc(N)cc1)C(N)=O)N(C)C(=O)[C@H](Cc1c[nH]c2ccccc12)NC(=O)CN(C)C(=O)[C@H](Cc1ccc(O)cc1)NC(=O)[C@H](C)NC(=O)[C@@H](CCC(=O)O)NC(=O)[C@@H](CCC(=O)O)NC(=O)[C@@H](CCC(=O)O)NC(=O)[C@@H](C)NC(=O)[C@@H](CCC(=O)O)NC(=O)[C@H](N)CCC(=O)O` [M] (H-[dE][dE][dA][dE][dE][dE]AY[Sar]W[NMeNle]D[Phe(4-NH2)]-NH2; N-terminus assumed), the IC50 (modified peptides based on Peptide C (Table 4)) stood at 741 ± 64 pM.
